Test results: patent US6696478B2, “Cancer treatment with Gö6976 and its related compounds” (priority 1999, dated 2004)

Columns and labels:
[1] = tested on: A549 human lung cancer cells; test: Cell viability assay (trypan blue), lung cancer cells, second set; format: cell-based; conditions: 14 μm compound; approximately 5×10^5 cells seeded; seven days after treatment
Method: A549 human lung cancer cells,
(§1) These cells were maintained in Dulbecco's modified Eagle medium (DMEM) supplemented with 10 percent bovine calf serum.
(§2) Cells were seeded for 24 hours. Then they were either treated with Gö6976, C-o 002, or C-o 003, or left untreated. The cells were then collected periodically and evaluated using trypan blue dye exclusion to asses viability using the method described by CY Chen, et al, in J.Biol. Chem. 273:16700-16709.
(§3) Two sets of approximately 5×10^5 human MDA-MB-468 breast cancer cells, DU145 human prostate cancer cells, A549 lung cancer cells, AGS gastric cancer cells, and T84 colorectal cancer cells were seeded and treated with 14 μm C-o 002 and C-o 003 24 hours later. Seven days after treatment, viable cells were counted.

[2] = tested on: MDA-MB-468 human breast cancer cells; test: Cell viability assay (trypan blue), breast cancer cells, second set; format: cell-based; conditions: 14 μm compound; approximately 5×10^5 cells seeded; seven days after treatment
Method: MDA-MB-468 human breast cancer cells
as §1, §2, §3

[3] = tested on: AGS human gastric cancer cells; test: Cell viability assay (trypan blue), gastric cancer cells, second set; format: cell-based; conditions: approximately 5×10^5 cells seeded, seven days after treatment
Method: AGS human gastric cancer cells,
as §1, §2
(§4) Two sets of approximately 5×10^5 DU145 prostate cancer cells, HepG2 liver cancer cells, AGS gastric cancer cells, and T84 colorectal cancers were seeded and 24 hours later one of the sets were treated with 2 μm Gö6976. Seven days after treatment, viable cells were counted.
as §3

[4] = tested on: DU145 human prostate cancer cells; test: Cell viability assay (trypan blue), prostate cancer cells, second set; format: cell-based; conditions: approximately 5×10^5 cells seeded, seven days after treatment
Method: DU145 human prostate cancer cells,
as §1, §2, §4, §3

[5] = tested on: T84 human colorectal cancer cells; test: Cell viability assay (trypan blue), colorectal cancer cells, second set; format: cell-based; conditions: approximately 5×10^5 cells seeded, seven days after treatment
Method: T84 human colorectal cancer cells,
as §1, §2, §4, §3

[6] = tested on: HepG2 human liver cancer cells; test: Cell viability assay (trypan blue), liver cancer cells, second set; format: cell-based; conditions: seven days after treatment
Method: HepG2 human liver cancer cells,
as §1, §2, §4, §3

[7] = tested on: human breast cancer cells (MDA-MB-468 and MDA-MB-453); test: Cell viability assay (trypan blue dye exclusion), breast cancer cells, first set; format: cell-based; conditions: for viable cell count: about 5×10^5 cells at start, counted at day 4 (FIG. 2)
Method: MDA-MB-468 human breast cancer cells,
MDA-MB-453 human breast cancer cells,
as §1
(§5) Cells were seeded for 24 hours. Then they were either treated with Gö6976 or left untreated. The cells were then collected periodically and evaluated using trypan blue dye exclusion to asses viability using the method described by CY Chen, et al, in J.Biol. Chem. 273:16700-16709.
In both FIG. 2 and FIG. 3 error bars indicated the estimated standard error based on three independent experiments.

PKC α = conditions: cited from earlier work
[8] = tested on: 3Y1 cells overexpressing EGF receptors; test: EGF-induced cell transformation (morphology); format: cell-based, rat
Excerpt: (§6) 3Y1 rat fibroblast cells overexpressing the epidermal growth factor receptor (EGFR).
as §1

[9] = tested on: HL60 human acute promyelocytic leukemia cells; test: Cell viability assay (trypan blue), leukemia cells; format: cell-based; conditions: 2 micromoles Gö6976; 5×10^5 cells at start; after four days (FIG. 4)
Method: HL60 human acute promyelocytic leukemia cells were grown in RPMI 1640 medium containing 10 percent heat-inactivated fetal bovine serum (FBS).
as §5
One of two samples of 5×10^5 cells was treated with 2 micromoles of Gö6976 and the viable cells were counted after four days. At four days the cells in the untreated sample had grown by a factor of nearly 10 to almost 5×10^6 cells whereas viable cells in the treated sample was less than 0.2×10^5.

[10] = tested on: U-2 OS human osteosacoma cells; test: Cell viability assay (trypan blue), osteosarcoma cells; format: cell-based; conditions: 2 micromoles Gö6976; about 5×10^5 cells at start; after four days (FIG. 6)
Method: U-2 OS human osteosacoma cells,
as §1, §5
One of two samples of about 5×10^5 cells was treated with 2 micromoles of Gö6976 and the viable cells were counted after four days.

[11] = tested on: 3Y1 cells overexpressing EGF receptors; test: Anchorage-independent cell growth in soft agar (EGF-induced colony formation); format: cell-based, rat; conditions: 100 ng/ml EGF and 250 nanamoles Gö6976; three weeks in soft agar (FIG. 8)
Excerpt: as §6
For growth of these cells in soft agar, 1×10^3 cells were suspended in top agar (consisting of 20 percent calf serum, 0.38 percent agar and the remainder DMEM) and overlaid onto hardened bottom agar (DMEM, 20 percent calf serum and 0.7 percent agar) as reported by Sementchenko et al, in Onocgen 17:2883-2888.
The effect of Gö6976 on blocking EGF-induced cell transformation was further confirmed by checking anchorage-independent cell growth. […] One sample was left untreated, one was treated with 100 ng/ml of EGF, one sample was treated with 100 ng/ml of EGF and 250 nanamoles of Gö6976 and one sample was treated with 250 nanaomoles of Gö6976. In each case the percentage of cell forming colonies were determined three weeks after suspending the cells in soft agar.

C6 glioma cells = test: Cell growth, brain tumor cells, second set; format: cell-based; conditions: 2 μm Gö6976 for 7 days; approximately 5×10^5 cells seeded (FIG. 10)
Method: as §1, §2
(§7) Two sets of approximately 5×10^5 C6 glioma cells and Hela cervical cancer cells were seeded and treated or untreated with 2 μm Gö6976 for 7 days.

[12] = tested on: Non-small cell lung cancer cells (NCI-H2342); test: Cell viability assay (trypan blue), non-small cell lung cancer cells; format: cell-based; conditions: treated with Gö6976 (concentration not given); about 5×10^5 cells at start; day 4 (FIG. 5)
Method: Non-small cell lung cancer cells (NCI-H2342).
(§8) Small cell lung cancer cells were grown in RPMI 1640 medium with 2 mM L-glutamine adjusted to contain 1.5 g/L sodium bicarbonate, 4.5 g/L glucose, 10 mM HEPES, 1.0 mM sodium pyruvate, and 5% fetal bovine serum. Non-small cell lung cancer cells were grown in RPMI 1640 medium supplemented with 5% fetal bovine serum, 5 ug/ml insulin, 10 ug/ml transferrin, 30 nM sodium selenite, 10 nM hydrocortisone, 10 nM beta-estradiol, 10 mM HEPES, and 2 mM L- glutamine.
as §5
(§9) Two samples each of about 5×10^5 cells small lung cancer cells and non-small lung cancer cells were prepared and one sample of each type was treated with Gö6976 and the viable cells were counted at day 4. In the untreated samples the cancer cells had multiplied by almost a factor of 10 and in the treated samples the count had decreased to less than 0.5 of the original count.

[13] = tested on: normal cells including rat 3Y1 fibroblast; test: Toxic effects on normal cells; format: cell-based
Excerpt: Toxic effects begin to show up at concentrations of about 5 micromoles in these types of cells.

[14] = tested on: Small cell lung cancer cells (NCI-H048); test: Cell viability assay (trypan blue), small cell lung cancer cells; format: cell-based; conditions: treated with Gö6976 (concentration not given); about 5×10^5 cells at start; day 4 (FIG. 5)
Method: Small cell lung cancer cells (NCI-H048),
as §8, §5, §9

[15] = tested on: Hela human cervical cancer cells; test: Cell growth, cervical cancer cells, second set; format: cell-based; conditions: 2 μm Gö6976 for 7 days; approximately 5×10^5 cells seeded (FIG. 10)
Method: Hela human cervical cancer cells
as §1, §2, §7

[16] = tested on: A431 human epidermoid carcinoma cells; test: Cell viability assay (trypan blue), epidermoid carcinoma cells; format: cell-based; conditions: 2 micromoles Gö6976; about 5×10^5 cells at start; at four days; untreated grew by a factor of about 24 (FIG. 7)
Method: A431 human epidermoid carcinoma cells,
as §1, §5
One of two samples of about 5×10^5 cells was treated with 2 micromoles of Gö6976 and the viable cells were counted each 24 hours for four days.

SMILES: NCCCn1c2ccccc2c2c3c(c4c5ccccc5[nH]c4c21)CNC3 [C-o 002, 12-(3-Aminopropyl)-5,6,7,12,13-pentahydro-indolo[2,3,-a] pyrrolo [3,4-c] carbazole]
- viable cells counted [1]: 7 × 10^5
- viable cells counted [2]: 0
- viable cells counted ([3]; 14 μm compound): 0
- viable cells counted ([4]; 14 μm compound): 0
- viable cells counted ([5]; 14 μm compound): 1.9 × 10^4
- viable cells counted ([6]; 14 μm compound): 0

SMILES: Cl.NCCCn1c2ccccc2c2c3c(c4c5ccccc5[nH]c4c21)CNC3 [C-o 003, 12-(3-Aminopropyl)-5,6,7,12,13-pentahydro-indolo[2,3,-a] pyrrolo [3,4-c] carbazole hydrochloride]
- viable cells counted [1]: 8.5 × 10^5
- viable cells counted [2]: 0
- viable cells counted ([3]; 14 μm compound): 0
- viable cells counted ([4]; 14 μm compound): 0
- viable cells counted ([5]; 14 μm compound): 2.7 × 10^4
- viable cells counted ([6]; 14 μm compound): 0

SMILES: Cn1c2ccccc2c2c3c(c4c5ccccc5n(CCC#N)c4c21)CNC3=O [Gö6976, 12-(2-Cyanoethyl)-6,7,12,13-tetrahydro-13-methyl-5-oxo-5H-indolo[2,3-a]pyrrolo[3,4-c]carbazole]
- viable cell count ([7]; 1 micromole Gö6976): about 1×10^5
- viable cell count ([7]; 2.0 micromolar Gö6976): less than 0.3×10^5
- viable cell concentration over time ([7]; 2.0 micromoles Gö6976, measured at 24 hours intervals for 4 days (FIG. 3)): reduced by approximately half each 24 hours
- TPA-induced downregulation of PKC α (PKC α): prevented TPA-induced downregulation
- toxic effect on 3Y1 EGFR cells ([8]; Gö6976 alone): did not show any toxic effect
- EGF-induced cell transformation (transformed morphology) ([8]; co-treatment with 250 nanamoles Gö6976 and 100 ng/ml EGF, 24 hours): completely blocked
- viable cells in the treated sample [9]: less than 0.2×10^5
- viable cells counted ([3]; 2 μm Gö6976): 0
- viable cells in the treated sample relative to the original count [10]: reduced to about half the original count
- colony forming efficiency of EGF (percentage of cell forming colonies) [11]: greatly reduced
- cell growth (C6 glioma cells): significant inhibited the growth
- viable cell count relative to the original count [12]: less than 0.5
- toxic effects on normal cells ([13]; concentrations used in the first set of experiments): no significant toxic effects
- concentration at which toxic effects begin to show up ([13]; normal cells): about 5 micromoles
- viable cell count relative to the original count [14]: less than 0.5
- cell growth [15]: significant inhibited the growth
- viable cells counted ([4]; 2 μm Gö6976): 0
- viable cells counted ([5]; 2 μm Gö6976): 1.1 × 10^4
- viable cells in the treated sample relative to the original count [16]: approximately doubled
- viable cells counted ([6]; 2 μm Gö6976, approximately 5×10^5 cells seeded): 0
